Measured values as given in PubChem BioAssay (NCI).
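Briefly, cells in 96-well plates were exposed to five compound concentrations for 48 h, and endpoints were estimated by linear interpolation. At the GI50, growth is halved. TGI is the concentration that stops growth completely.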

What was measured:
Assay in all cases: inhibition of tumour cell growth, NCI panel, 48 h
786-0 renal = tested on: 786-0 renal
DU-145 prostate = tested on: DU-145 prostate
CAKI-1 renal = tested on: CAKI-1 renal
NCI-H226 lung = tested on: NCI-H226 lung
OVCAR-3 ovarian = tested on: OVCAR-3 ovarian
SF-295 CNS = tested on: SF-295 CNS
NCI-H522 lung = tested on: NCI-H522 lung
SNB-19 CNS = tested on: SNB-19 CNS
NCI-H460 lung = tested on: NCI-H460 lung
OVCAR-4 ovarian = tested on: OVCAR-4 ovarian
TK-10 renal = tested on: TK-10 renal
PC-3 prostate = tested on: PC-3 prostate
SN12C renal = tested on: SN12C renal
ACHN renal = tested on: ACHN renal
K-562 leukemia = tested on: K-562 leukemia
MDA-MB-231 breast = tested on: MDA-MB-231 breast
EKVX NSCLC = tested on: EKVX NSCLC
M14 melanoma = tested on: M14 melanoma
SK-MEL-5 melanoma = tested on: SK-MEL-5 melanoma
SK-MEL-28 melanoma = tested on: SK-MEL-28 melanoma
UACC-62 melanoma = tested on: UACC-62 melanoma
RXF 393 renal = tested on: RXF 393 renal
KM12 colon = tested on: KM12 colon
SW-620 colon = tested on: SW-620 colon
MCF7 breast = tested on: MCF7 breast
IGROV1 ovarian = tested on: IGROV1 ovarian
OVCAR-5 ovarian = tested on: OVCAR-5 ovarian
UO-31 renal = tested on: UO-31 renal
HT29 colon = tested on: HT29 colon
CCRF-CEM leukemia = tested on: CCRF-CEM leukemia
HOP-62 NSCLC = tested on: HOP-62 NSCLC
HS 578T breast = tested on: HS 578T breast
MOLT-4 leukemia = tested on: MOLT-4 leukemia
HCT-116 colon = tested on: HCT-116 colon
SF-539 CNS = tested on: SF-539 CNS
OVCAR-8 ovarian = tested on: OVCAR-8 ovarian
HCT-15 colon = tested on: HCT-15 colon
U251 CNS = tested on: U251 CNS
HOP-92 NSCLC = tested on: HOP-92 NSCLC
T-47D breast = tested on: T-47D breast
NCI/ADR-RES ovarian = tested on: NCI/ADR-RES ovarian
BT-549 breast = tested on: BT-549 breast
RPMI-8226 leukemia = tested on: RPMI-8226 leukemia
A549 NSCLC = tested on: A549 NSCLC
MDA-MB-435 = tested on: MDA-MB-435
SNB-75 CNS = tested on: SNB-75 CNS
HL-60(TB) leukemia = tested on: HL-60(TB) leukemia
SK-OV-3 ovarian = tested on: SK-OV-3 ovarian
HCC-2998 colon = tested on: HCC-2998 colon
COLO 205 colon = tested on: COLO 205 colon
LOX IMVI melanoma = tested on: LOX IMVI melanoma
NCI-H23 lung = tested on: NCI-H23 lung
UACC-257 melanoma = tested on: UACC-257 melanoma
A498 renal = tested on: A498 renal
SR leukemia = tested on: SR leukemia

O=C(Nc1ccc(Nc2ccncc2)cc1)c1ccc(Nc2ccnc3ccc([N+](=O)[O-])cc23)cc1[N+](=O)[O-]
GI50 (786-0 renal): 6.03 µM
TGI (786-0 renal): 42.4 µM
GI50 (DU-145 prostate): 5.55 µM
TGI (DU-145 prostate): 25.5 µM
GI50 (CAKI-1 renal): > 39.6 µM
TGI (CAKI-1 renal): > 83.2 µM
GI50 (NCI-H226 lung): 37.5 µM
TGI (NCI-H226 lung): > 93.9 µM
GI50 (OVCAR-3 ovarian): 24.7 µM
TGI (OVCAR-3 ovarian): > 89.5 µM
GI50 (SF-295 CNS): 6.69 µM
TGI (SF-295 CNS): 98.3 µM
GI50 (NCI-H522 lung): 21.9 µM
TGI (NCI-H522 lung): 68.6 µM
GI50 (SNB-19 CNS): 5.61 µM
TGI (SNB-19 CNS): > 100 µM
GI50 (NCI-H460 lung): 9.96 µM
TGI (NCI-H460 lung): > 100 µM
GI50 (OVCAR-4 ovarian): 6.01 µM
TGI (OVCAR-4 ovarian): > 79.1 µM
GI50 (TK-10 renal): 27.9 µM
TGI (TK-10 renal): > 80.2 µM
GI50 (PC-3 prostate): 5.05 µM
TGI (PC-3 prostate): > 40 µM
GI50 (SN12C renal): 20.4 µM
TGI (SN12C renal): > 55.5 µM
GI50 (ACHN renal): 15.5 µM
TGI (ACHN renal): 37.2 µM
GI50 (K-562 leukemia): 36.4 µM
TGI (K-562 leukemia): > 100 µM
GI50 (MDA-MB-231 breast): 24.6 µM
TGI (MDA-MB-231 breast): > 61.8 µM
GI50 (EKVX NSCLC): 22.5 µM
TGI (EKVX NSCLC): > 100 µM
GI50 (M14 melanoma): 21.9 µM
TGI (M14 melanoma): > 100 µM
GI50 (SK-MEL-5 melanoma): 25.8 µM
TGI (SK-MEL-5 melanoma): > 100 µM
GI50 (SK-MEL-28 melanoma): 5.26 µM
TGI (SK-MEL-28 melanoma): > 46.1 µM
GI50 (UACC-62 melanoma): 11.1 µM
TGI (UACC-62 melanoma): 58.8 µM
GI50 (RXF 393 renal): 24.9 µM
TGI (RXF 393 renal): 42.5 µM
GI50 (KM12 colon): 6.47 µM
TGI (KM12 colon): > 100 µM
GI50 (SW-620 colon): 26.8 µM
TGI (SW-620 colon): > 55.5 µM
GI50 (MCF7 breast): 4.73 µM
TGI (MCF7 breast): > 100 µM
GI50 (IGROV1 ovarian): 14.1 µM
TGI (IGROV1 ovarian): > 83.7 µM
GI50 (OVCAR-5 ovarian): 38 µM
TGI (OVCAR-5 ovarian): > 88.4 µM
GI50 (UO-31 renal): 7.33 µM
TGI (UO-31 renal): > 64.1 µM
GI50 (HT29 colon): 45.4 µM
TGI (HT29 colon): > 100 µM
GI50 (CCRF-CEM leukemia): 18.6 µM
TGI (CCRF-CEM leukemia): > 50.6 µM
GI50 (HOP-62 NSCLC): 24.8 µM
TGI (HOP-62 NSCLC): > 100 µM
GI50 (HS 578T breast): 0.691 µM
GI50 (MOLT-4 leukemia): 43.9 µM
TGI (MOLT-4 leukemia): > 100 µM
GI50 (HCT-116 colon): 23.7 µM
TGI (HCT-116 colon): > 100 µM
GI50 (SF-539 CNS): 2.98 µM
TGI (SF-539 CNS): 11.2 µM
GI50 (OVCAR-8 ovarian): 13 µM
TGI (OVCAR-8 ovarian): 45.2 µM
GI50 (HCT-15 colon): 35.6 µM
TGI (HCT-15 colon): > 100 µM
GI50 (U251 CNS): 2.76 µM
TGI (U251 CNS): > 24.8 µM
GI50 (HOP-92 NSCLC): 24.6 µM
TGI (HOP-92 NSCLC): > 74.2 µM
GI50 (T-47D breast): 6.39 µM
TGI (T-47D breast): 34.9 µM
GI50 (NCI/ADR-RES ovarian): 12.8 µM
TGI (NCI/ADR-RES ovarian): > 100 µM
GI50 (BT-549 breast): > 78.5 µM
TGI (BT-549 breast): > 100 µM
GI50 (RPMI-8226 leukemia): 12.6 µM
TGI (RPMI-8226 leukemia): 55.3 µM
GI50 (A549 NSCLC): 3.95 µM
TGI (A549 NSCLC): > 44.2 µM
GI50 (MDA-MB-435): 23.3 µM
TGI (MDA-MB-435): > 100 µM
GI50 (SNB-75 CNS): 16 µM
TGI (SNB-75 CNS): 50.6 µM
GI50 (HL-60(TB) leukemia): 25 µM
TGI (HL-60(TB) leukemia): > 58.7 µM
GI50 (SK-OV-3 ovarian): 19.3 µM
TGI (SK-OV-3 ovarian): 40 µM
GI50 (HCC-2998 colon): 32.9 µM
TGI (HCC-2998 colon): > 100 µM
GI50 (COLO 205 colon): 17.5 µM
TGI (COLO 205 colon): > 100 µM
GI50 (LOX IMVI melanoma): 4.82 µM
TGI (LOX IMVI melanoma): > 51 µM
GI50 (NCI-H23 lung): 20.6 µM
TGI (NCI-H23 lung): > 100 µM
GI50 (UACC-257 melanoma): 11.3 µM
TGI (UACC-257 melanoma): 29.5 µM
GI50 (A498 renal): 24.2 µM
TGI (A498 renal): > 62.2 µM
GI50 (SR leukemia): 16.6 µM
TGI (SR leukemia): 38.8 µM
